In brackets after ≈: the same amount, converted by molar mass.
What was measured:
[1] = system: KB; assay: Cytotoxicity against human KB cells after 3 days by MTT assay; assay type: functional, cell-based; conditions: 72 h
[2] = system: A2780; assay: Cytotoxicity against human A2780 cells after 3 days by MTT assay; assay type: functional, cell-based; conditions: A2780, 72 h
[3] = system: Bel-7402; assay: Cytotoxicity against human Bel7402 cells after 3 days by MTT assay; assay type: functional, cell-based; conditions: Bel-7402, 72 h
[4] = system: A549; assay: Cytotoxicity against human A549 cells after 3 days by MTT assay; assay type: functional, cell-based; conditions: A549, 72 h
[5] = system: HCT-8; assay: Cytotoxicity against human HCT8 cells after 3 days by MTT assay; assay type: functional, cell-based; conditions: HCT-8, 72 h
[6] = system: HeLa; assay: Cytotoxicity against human HeLa cells after 3 days by MTT assay; assay type: functional, cell-based; conditions: 72 h
[7] = system: BGC-823; assay: Cytotoxicity against human BGC823 cells after 3 days by MTT assay; assay type: functional, cell-based; conditions: BGC-823, 72 h
[8] = system: MCF7; assay: Cytotoxicity against human MCF7 cells after 3 days by MTT assay; assay type: functional, cell-based; conditions: MCF7, 72 h
[9] = system: KETR3; assay: Cytotoxicity against human Ketr3 cells after 3 days by MTT assay; assay type: functional, cell-based; conditions: KETR3, 72 h
[10] = system: LoVo; assay: Cytotoxicity against human LoVo cells; assay type: functional
[11] = system: KB; assay: Cytotoxicity against human KB cells; assay type: functional

Compound | IC50 [1] [µM] | IC50 [2] [µM] | IC50 [3] [µM] | IC50 [4] [µM] | IC50 [5] [µM] | IC50 [6] [µM] | IC50 [7] [µM] | IC50 [8] [µM] | IC50 [9] [µM] | MIC [10] [mg/L] | MIC [11] [mg/L]
COC1=C(C)C(=O)C2=C(C1=O)[C@@H]1[C@@H]3CC4=C(C(=O)C(OC)=C(C)C4=O)[C@H](COC(=O)c4cc5ccccc5[nH]4)N3C(=O)[C@H](C2)N1C | 3.36 | 3.8 | 4.59 | 4.07 | 7.85 | 2.7 | 2.6 | 3.88 | 4.42 | – | –
COC1=C(C)C(=O)C2=C(C1=O)[C@@H]1[C@@H]3CC4=C(C(=O)C(OC)=C(C)C4=O)[C@H](COC(=O)/C=C/c4ccccc4)N3C(=O)[C@H](C2)N1C | 2.96 | 5 | 2.3 | 5 | 5 | 4.39 | 3.31 | 3.55 | 7.83 | – | –
C/C=C/C(=O)OC[C@H]1C2=C(C[C@H]3[C@H]4C5=C(C[C@@H](C(=O)N13)N4C)C(=O)C(C)=C(OC)C5=O)C(=O)C(C)=C(OC)C2=O | 5.28 | 25.3 | 23.9 | 7.42 | 24.7 | 12.7 | 10.7 | 23.8 | 17.2 | – | –
COC1=C(C)C(=O)C2=C(C1=O)[C@@H]1[C@@H]3CC4=C(C(=O)C(OC)=C(C)C4=O)[C@H](COC(=O)/C=C/c4cccc5ccccc45)N3C(=O)[C@H](C2)N1C | 8.67 | 9.09 | 9.81 | 5 | 9.31 | 7.42 | 11.7 | 3.94 | 7.89 | – | –
COC1=C(C)C(=O)C2=C(C1=O)[C@@H]1[C@@H]3CC4=C(C(=O)C(OC)=C(C)C4=O)[C@H](COC(=O)c4cc(OC)c(OC)c(OC)c4)N3C(=O)[C@H](C2)N1C | 1.79 | 2.16 | 2.26 | 2.23 | 2.73 | 1.28 | 1.18 | 2.04 | 2.16 | – | –
COC1=C(C)C(=O)C2=C(C1=O)[C@@H]1[C@@H]3CC4=C(C(=O)C(OC)=C(C)C4=O)[C@H](COC(=O)c4cccc5ccccc45)N3C(=O)[C@H](C2)N1C | 5.41 | 15 | 10.9 | 12.5 | 28 | 7.58 | 17.5 | 14.1 | 13.8 | – | –
COC1=C(C)C(=O)C2=C(C1=O)[C@@H]1[C@@H]3CC4=C(C(=O)C(OC)=C(C)C4=O)[C@H](COC(=O)c4cccs4)N3C(=O)[C@H](C2)N1C | 0.02 | 1.44 | 1.6 | 0.71 | 1.48 | 0.47 | 0.52 | 1.86 | 1.67 | – | –
COC1=C(C)C(=O)C2=C(C1=O)[C@@H]1[C@@H]3CC4=C(C(=O)C(OC)=C(C)C4=O)[C@H](COC(=O)c4ccccc4)N3C(=O)[C@H](C2)N1C | 2.83 | 3.07 | 3.78 | 3.88 | 6.06 | 3.1 | 8.35 | 4.94 | 8.82 | – | –
COC1=C(C)C(=O)C2=C(C1=O)[C@@H]1[C@@H]3CC4=C(C(=O)C(OC)=C(C)C4=O)[C@H](COC(C)=O)N3C(=O)[C@H](C2)N1C | 2.25 | 3.26 | 3.96 | 4.49 | 5.68 | 2.68 | 4.27 | 4.92 | 4.58 | – | –
COC1=C(C)C(=O)C2=C(C1=O)[C@@H]1[C@@H]3CC4=C(C(=O)C(OC)=C(C)C4=O)[C@H](COC(=O)/C=C/c4ccc(F)cc4)N3C(=O)[C@H](C2)N1C | 3.95 | 15.8 | 14.2 | 8.32 | 9.15 | 9.99 | 7.43 | 9.67 | 10.4 | – | –
COC1=C(C)C(=O)C2=C(C1=O)[C@@H]1[C@@H]3CC4=C(C(=O)C(OC)=C(C)C4=O)[C@H](COC(=O)/C=C/c4ccc(OC)c(OC)c4OC)N3C(=O)[C@H](C2)N1C | 8.22 | 16.8 | 14 | 10.6 | 12.4 | 5.1 | 9.34 | 10.6 | 9.29 | – | –
COC1=C(C)C(=O)C2=C(C1=O)[C@@H]1[C@@H]3CC4=C(C(=O)C(OC)=C(C)C4=O)[C@H](COC(=O)/C=C/c4cccnc4)N3C(=O)[C@H](C2)N1C | 0.39 | 2.24 | 2.3 | 2.05 | 2.05 | 1.18 | 1.26 | 2.23 | 1.43 | – | –
COC1=C(C)C(=O)C2=C(C1=O)[C@@H]1[C@@H]3CC4=C(C(=O)C(OC)=C(C)C4=O)[C@H](COC(=O)/C=C/c4ccc(OC)cc4)N3C(=O)[C@H](C2)N1C | 3.73 | 4.16 | 7.28 | 8.34 | 8.85 | 2.81 | 3.84 | 3.74 | 3.12 | – | –
COC1=C(C)C(=O)C2=C(C1=O)[C@@H]1[C@@H]3CC4=C(C(=O)C(OC)=C(C)C4=O)[C@H](COC(=O)c4cccnc4)N3C(=O)[C@H](C2)N1C | 3.16 | 12.2 | 6.47 | 5.94 | 19.4 | 3.39 | 3.38 | 17.4 | 4.62 | – | –
C/C=C/C=C/C(=O)OC[C@H]1C2=C(C[C@H]3[C@H]4C5=C(C[C@@H](C(=O)N13)N4C)C(=O)C(C)=C(OC)C5=O)C(=O)C(C)=C(OC)C2=O | 2.03 | 2.44 | 2.13 | 3.2 | 3.47 | 2.43 | 3.5 | 2.54 | 3.86 | – | –
C/C=C(/C)C(=O)OC[C@H]1C2=C(C[C@H]3[C@H]4C5=C(C[C@@H](C(=O)N13)N4C)C(=O)C(C)=C(OC)C5=O)C(=O)C(C)=C(OC)C2=O [(-)-RENIERAMYCIN G] | 3.3 | 4.17 | 9.07 | 5 | 8.81 | 2.88 | 3.37 | 3.78 | 3.42 | 1 (≈ 1.77 µM) | 0.5 (≈ 0.886 µM)

From ChEMBL document CHEMBL1681670, “Synthesis and cytotoxicity of (-)-renieramycin G analogs” (Bioorg Med Chem Lett, 2011)
